Data as given in patent US8551984B2, “Aminopyrimidines as SYK inhibitors” (Merck Sharp & Dohme Corp., priority 2009, dated 2013).
Like-named read-outs stand apart in the source and are kept apart here.

Target: rhSYK (Homo sapiens, UniProt P43405)
[1] = read-out: rhSYK Activity, class symbol, where two forms are listed, one symbol per form
[2] = read-out: rhSYK activity, class symbol given

CC(O)(c1ccc(S(C)(=O)=O)s1)c1ncc(-c2cccc(Nc3nccc(C(F)(F)F)n3)c2)s1 (stereo not shown) [Example 4A-29]
IC50 [1]: 100 to 1000 nM

OC(c1ccccn1)(c1nccs1)c1ncc(-c2cccc(Nc3nccc(C(F)(F)F)n3)c2)s1 (stereo not shown) [Example 4A-30]
IC50 [1]: 100 to 1000 nM

CC(O)(c1ncc(-c2cccc(Nc3nccc(C(F)(F)F)n3)c2)s1)C(F)(F)C(F)(F)C(F)(F)F (stereo not shown) [Example 4A-31]
IC50 [1]: 1000 to 10000 nM

COCC(C)(O)c1ncc(-c2cc(C)cc(Nc3nccc(C(F)(F)F)n3)c2)s1 (stereo not shown) [Example 4A-32]
IC50 [1]: < 100 nM

Cc1cc(Nc2nccc(C(F)(F)F)n2)cc(-c2cnc(C(C)(O)CF)s2)c1 (stereo not shown) [Example 4A-33]
IC50 [1]: < 100 nM

Cc1cc(Nc2nccc(C(F)(F)F)n2)cc(-c2cnc(C(O)(CF)CF)s2)c1 [Example 4A-34]
IC50 [1]: < 100 nM

Cc1cc(Nc2nccc(C(F)(F)F)n2)cc(-c2cnc(C(C)(O)c3ncnn3C)s2)c1 (stereo not shown) [Example 4A-35]
IC50 [1]: < 100 nM

Cc1cc(Nc2nccc(C(F)(F)F)n2)cc(-c2cnc(C(C)(O)c3noc(C)n3)s2)c1 (stereo not shown) [Example 4A-36]
IC50 [1]: < 100 nM

Cc1cc(Nc2nccc(C(F)(F)F)n2)cc(-c2cnc(C(O)(C3CC3)C3CC3)s2)c1 [Example 4A-37]
IC50 [1]: < 100 nM

Cc1cc(Nc2nccc(C(F)(F)F)n2)cc(-c2cnc(C(O)(CO)CO)s2)c1 [Example 4A-38]
IC50 [1]: < 100 nM

Cc1cc(Nc2nccc(C)n2)cc(-c2cnc(C(O)(CO)CO)s2)c1 [Example 4A-39]
IC50 [1]: < 100 nM

Cc1cc(Nc2nccc(C(F)(F)F)n2)cc(-c2cnc(C(O)CCC#N)s2)c1 (stereo not shown) [Example 4A-41]
IC50 [1]: < 100 nM

C=CCCC(O)c1ncc(-c2cc(C)cc(Nc3nccc(C(F)(F)F)n3)c2)s1 (stereo not shown) [Example 4A-42]
IC50 [1]: < 100 nM

C=CCCC(C)(O)c1ncc(-c2cc(C)cc(Nc3nccc(C(F)(F)F)n3)c2)s1 (stereo not shown) [Example 4A-43]
IC50 [1]: < 100 nM

Cc1cc(Nc2nccc(C(F)(F)F)n2)cc(-c2cnc(C(C)(O)CC(C)N)s2)c1 (stereo not shown) [Example 4A-45]
IC50 [1]: < 100 nM

Cc1cc(Nc2nccc(C(F)(F)F)n2)cc(-c2cnc(C(C)(O)CCCN)s2)c1 (stereo not shown) [Example 4A-46]
IC50 [1]: < 100 nM

Cc1cc(Nc2nccc(C(F)(F)F)n2)cc(-c2cnc(C(C)(O)CCCC(=O)O)s2)c1 (stereo not shown) [Example 4A-47]
IC50 [1]: < 100 nM

COC(=O)C(C)(C)C(C)(O)c1ncc(-c2cc(C)cc(Nc3nccc(C(F)(F)F)n3)c2)s1 (stereo not shown) [Example 4A-48]
IC50 [1]: < 100 nM

Cc1cc(Nc2nccc(C(F)(F)F)n2)cc(-c2cnc(C(O)(c3ccccn3)C(C)C)s2)c1 (stereo not shown) [Example 4A-49]
IC50 [1]: 100 to 1000 nM

COc1ccsc1C(C)(O)c1ncc(-c2cc(C)cc(Nc3nccc(C(F)(F)F)n3)c2)s1 (stereo not shown) [Example 4A-50]
IC50 [1]: < 100 nM

CC(=O)c1ccc(C(C)(O)c2ncc(-c3cc(C)cc(Nc4nccc(C(F)(F)F)n4)c3)s2)cc1 (stereo not shown) [Example 4A-51]
IC50 [1]: < 100 nM

COC(=O)c1ccc(C(O)c2ncc(-c3cc(C)cc(Nc4nccc(C(F)(F)F)n4)c3)s2)cc1 (stereo not shown) [Example 4A-52]
IC50 [1]: 100 to 1000 nM

Cc1cc(Nc2nccc(C(F)(F)F)n2)cc(-c2cnc(C(C)(O)c3cccc(C(=O)O)c3)s2)c1 (stereo not shown) [Example 4A-53]
IC50 [1]: < 100 nM

Cc1cc(Nc2nccc(C(F)(F)F)n2)cc(-c2cnc(C(C)(O)c3ccc([N+](=O)[O-])cc3)s2)c1 (stereo not shown) [Example 4A-56]
IC50 [1]: 100 to 1000 nM

Cc1cc(Nc2nccc(C(F)(F)F)n2)cc(-c2cnc(C(C)(O)c3ccc(CC(=O)O)cc3)s2)c1 (stereo not shown) [Example 4A-58]
IC50 [1]: < 100 nM

Cc1cc(Nc2nccc(C(F)(F)F)n2)cc(-c2cnc(C(C)(O)Cc3ccc(C(=O)O)cc3)s2)c1 (stereo not shown) [Example 4A-61]
IC50 [1]: < 100 nM

COC(OC)C(O)(c1ccccn1)c1ncc(-c2cc(C)cc(Nc3nccc(C(F)(F)F)n3)c2)s1 (stereo not shown) [Example 4A-62]
IC50 [1]: < 100 nM

Cc1cc(Nc2nccc(C(F)(F)F)n2)cc(-c2cnc(C(C)(O)c3cc(CC(=O)O)cs3)s2)c1 (stereo not shown) [Example 4A-63]
IC50 [1]: < 100 nM

COc1cc(C(C)(O)c2ncc(-c3cc(C)cc(Nc4nccc(C(F)(F)F)n4)c3)s2)ccc1C(=O)O (stereo not shown) [Example 4A-64]
IC50 [1]: < 100 nM

Cc1cc(Nc2nccc(C(F)(F)F)n2)cc(-c2cnc(C(C)(O)c3cccc(OCC(=O)O)c3)s2)c1 (stereo not shown) [Example 4A-67]
IC50 [1]: < 100 nM

Cc1cc(Nc2nccc(C(F)(F)F)n2)cc(-c2cnc(C(C)(O)c3ccc(Br)nc3)s2)c1 (stereo not shown) [Example 4A-70]
IC50 [1]: < 100 nM

Cc1cc(Nc2nccc(C(F)(F)F)n2)cc(-c2cnc(C(C)(O)c3cncc(Br)c3)s2)c1 (stereo not shown) [Example 4A-71]
IC50 [1]: < 100 nM

COC(=O)c1ccc(C(C)(O)c2ncc(-c3cc(C)cc(Nc4nccc(C(F)(F)F)n4)c3)s2)cc1OC (stereo not shown) [Example 4A-72]
IC50 [1]: 100 to 1000 nM

Cc1cc(Nc2nccc(C(F)(F)F)n2)cc(-c2cnc(C(C)(O)c3ccc(S(=O)(=O)N(C)C)cc3)s2)c1 (stereo not shown) [Example 4A-73]
IC50 [1]: 100 to 1000 nM

Cc1cc(Nc2nccc(C(F)(F)F)n2)cc(-c2cnc(C(C)(O)c3cnc4sc(C(=O)O)c(C)c4c3)s2)c1 (stereo not shown) [Example 4A-74]
IC50 [1]: < 100 nM

Cc1cc(Nc2nccc(C(F)(F)F)n2)cc(-c2cnc(C(C)(O)c3cccc(-c4cccc(C(=O)O)c4)c3)s2)c1 (stereo not shown) [Example 4A-75]
IC50 [1]: < 100 nM

Cc1cc(Nc2nccc(C(F)(F)F)n2)cc(-c2cnc(C(C)(O)c3ccc(N4CC(C(=O)O)CC4=O)cc3)s2)c1 (stereo not shown) [Example 4A-78]
IC50 [1]: < 100 nM

COc1ccnc(Nc2cc(C)cc(-c3cnc(C(C)(O)c4ccc(C(=O)O)cc4)s3)c2)n1 (stereo not shown) [Example 4A-79]
IC50 [1]: < 100 nM

Cc1cc(Nc2nccc(C(F)(F)F)n2)cc(-c2cnc(C3(O)CCC3)s2)c1 [Example 4B-1]
IC50 [1]: < 100 nM

CC1CCCC1(O)c1ncc(-c2cccc(Nc3nccc(C(F)(F)F)n3)c2)s1 (stereo not shown) [Example 4B-2]
IC50 [1]: < 100 nM

CCOC(=O)N1C2CCC1CC(O)(c1ncc(-c3cccc(Nc4nccc(C(F)(F)F)n4)c3)s1)C2 (stereo not shown) [Example 4B-3]
IC50 [1]: 100 to 1000 nM

O=C(c1ccoc1)c1ncc(-c2cccc(Nc3nccc(C(F)(F)F)n3)c2)s1 [Example 4B-4]
IC50 [1]: 100 to 1000 nM

O=C(c1ccon1)c1ncc(-c2cccc(Nc3nccc(C(F)(F)F)n3)c2)s1 [Example 4B-5]
IC50 [1]: < 100 nM

N#CCCC1CCCCC1(O)c1ncc(-c2cccc(Nc3nccc(C(F)(F)F)n3)c2)s1 (stereo not shown) [Example 4B-6]
IC50 [1]: 100 to 1000 nM

OC1(c2ncc(-c3cccc(Nc4nccc(C(F)(F)F)n4)c3)s2)CC2COCC(C1)N2Cc1ccccc1 (stereo not shown) [Example 4B-9]
IC50 [1]: 1000 to 10000 nM

Cc1cc(Nc2nccc(C)n2)cc(-c2cnc(C3(O)C4CC5CC3CN(C5)C4)s2)c1 (stereo not shown) [Example 4B-17]
IC50 [1]: 100 to 1000 nM

Cc1cc(Nc2nccc(C(F)(F)F)n2)cc(-c2cnc(C3(O)CCCC4(OCCO4)C3(C)C)s2)c1 (stereo not shown) [Example 4B-28]
IC50 [1]: 100 to 1000 nM

Cc1cc(Nc2nccc(C(F)(F)F)n2)cc(-c2cnc(C3(O)CC4C(Br)CC3C4C(=O)O)s2)c1 (stereo not shown) [Example 4B-53]
IC50 [1]: < 100 nM

Cc1cc(Nc2nccc(C(F)(F)F)n2)cc(-c2cnc(C3(O)CC4C(Br)CC3C4C(=O)O)s2)c1 (stereo not shown) [Example 4B-54]
IC50 [1]: < 100 nM

Cc1cc(Nc2nccc(C(F)(F)F)n2)cc(-c2cnc(C(=O)CCC#N)s2)c1 [Example 4B-59]
IC50 [1]: < 100 nM

Cc1cc(Nc2nccc(C(F)(F)F)n2)cc(-c2cnc(C(=O)CCC(=O)CCO)s2)c1 [Example 4B-62]
IC50 [1]: 100 to 1000 nM

Cc1cc(Nc2nccc(C(F)(F)F)n2)cc(-c2cnc(C3(O)CCC(CN)CC3)s2)c1 (stereo not shown) [Example 4C-4]
IC50 [1]: < 100 nM

Cc1cc(Nc2nccc(C(F)(F)F)n2)cc(-c2cnc([C@]3(O)CC[C@H](CO)CC3)s2)c1 [Example 4C-6]
IC50 [1]: < 100 nM

Cc1cc(Nc2nccc(C(F)(F)F)n2)cc(-c2cnc(C3(O)CCC(CO)CC3)s2)c1 (stereo not shown) [Example 4C-7]
IC50 [1]: < 100 nM

Cc1cc(Nc2nccc(C(F)(F)F)n2)cc(-c2cnc([C@]3(O)CC[C@@H](CO)CC3)s2)c1 [Example 4C-8]
IC50 [1]: < 100 nM

Cc1cc(Nc2nccc(C(F)(F)F)n2)cc(-c2cnc([C@]3(O)CC[C@@H](CC(=O)O)CC3)s2)c1 [Example 4C-14]
IC50 [1]: < 100 nM

Cc1cc(Nc2nccc(C(F)(F)F)n2)cc(-c2cnc([C@]3(O)CC[C@H](CC(=O)O)CC3)s2)c1 [Example 4C-15]
IC50 [1]: < 100 nM

CCOC(=O)C1CCCC(O)(c2ncc(-c3cc(C)cc(Nc4nccc(C(F)(F)F)n4)c3)s2)C1 (stereo not shown) [Example 4C-21]
IC50 [1]: 100 to 1000 nM

COC(=O)C1CCC(O)(c2ncc(-c3cc(C)cc(Nc4nccc(C(F)(F)F)n4)c3)s2)CC1C(C)C (stereo not shown) [Example 4C-25]
IC50 [1]: 100 to 1000 nM

Cc1cc(Nc2nccc(C(F)(F)F)n2)cc(-c2cnc(C3(O)CCC(CC(C)(C)C(=O)O)CC3)s2)c1 (stereo not shown) [Example 4C-26]
IC50 [1]: < 100 nM

Cc1cc(Nc2nccc(C(F)(F)F)n2)cc(-c2cnc([C@]3(O)CC[C@@H](NC(=O)Cn4ccnc4)CC3)s2)c1 [Example 4C-29]
IC50 [1]: < 100 nM

Cc1cc(Nc2nccc(C(F)(F)F)n2)cc(-c2cnc(C3(O)CCC(NC(=O)C4CCC(=O)O4)CC3)s2)c1 (stereo not shown) [Example 4C-30]
IC50 [1]: < 100 nM

Cc1cc(Nc2nccc(C(F)(F)F)n2)cc(-c2cnc(C3(O)CCC(NC(=O)C4CCC(=O)O4)CC3)s2)c1 (stereo not shown) [Example 4C-31]
IC50 [1]: < 100 nM

Cc1cc(Nc2nccc(C(F)(F)F)n2)cc(-c2cnc([C@]3(O)CC[C@@H](NC(=O)Cc4ccccn4)CC3)s2)c1 [Example 4C-32]
IC50 [1]: < 100 nM

OC(c1ncc(-c2cccc(Nc3nccc(C(F)(F)F)n3)c2)s1)C(F)(F)F (stereo not shown) [Example 6-2]
IC50 [1]: < 100 nM

CCOC(=O)C(O)(c1ncc(-c2cc(C)cc(Nc3nccc(C(F)(F)F)n3)c2)s1)C(F)(F)F (stereo not shown) [Example 6-6]
IC50 [1]: < 100 nM

Cc1cc(Nc2nccc(C(F)(F)F)n2)cc(-c2cnc(C(O)(CO)C(F)(F)F)s2)c1 (stereo not shown) [Example 6-7]
IC50 [1]: < 100 nM

Cc1cc(Nc2nccc(C(F)(F)F)n2)cc(-c2cnc([C@]3(O)CC[C@@H](O)CC3)s2)c1 [Example 8(1), cis-1-[5-(3-methyl-5-{[4-(trifluoromethyl)pyrimidin-2-yl]amino}phenyl)-1,3-thiazol-2-yl]-cyclohexane-1,4-diol]
IC50 [2]: < 100 nM

Cc1cc(Nc2nccc(C(F)(F)F)n2)cc(-c2cnc(C(C)(O)c3ccc(C(C)O)cc3)s2)c1 (stereo not shown) [Example 8B-4]
IC50 [1]: < 100 nM

Cc1cc(Nc2nccc(C(F)(F)F)n2)cc(-c2cnc([C@]3(O)CC[C@](C)(O)CC3)s2)c1 [Example 9(1), trans-1-methyl-4-[5-(3-methyl-5-{[4-(trifluoromethyl)pyrimidin-2-yl]amino}phenyl)-1,3-thiazol-2-yl]cyclohexane-1,4-diol]
IC50 [2]: < 100 nM
